Laboratory results as given in US20080200475A1 (Pfizer Inc., priority 2005, published 2008).
Where “and” joins values, the source holds several entries; their conditions need not be identical. Identical values can stand only once.

Biological target: T1, Human P2Y12 (Homo sapiens, UniProt Q9H244)
T1 construct: expressed in transfected cells; host or cells: HEK cells (membrane preparation)
Assay: [^33P]-2MeS-ADP Binding to Recombinant Human P2Y12 Membranes (Assay 3)
Settings: for inhibition at 10 µM / % Inhibition, [^33P]-2MeS-ADP Binding to Recombinant Human P2Y12 Membranes (Assay 3): highest concentration tested 10 μM; for IC50 / Ki: membranes of HEK cells transfected with P2Y12, competition with ^33P 2MeS-ADP, multiple lines = multiple runs
Procedure: 3. Human P2Y12 Recombinant Cell Membrane Binding Assay with ^33P 2MeS-ADP.
The ability of a test compound to bind to the P2Y12 receptor was evaluated in a recombinant cell membrane binding assay. In this competitive binding assay, the test compound competed against a radiolabelled agonist for binding to the P2Y12 receptor, expressed on the cell membrane. Inhibition of binding of the labeled material was measured and correlated to the amount and potency of the test compound. Data from this assay are presented in Table F. This binding assay is a modification of the procedure in Takasaki, J. et. al, Mol. Pharmacol., 2001, Vol. 60, pg. 432.
HEK cells were transfected with the pDONR201P2Y12 vector and cultured in MEM with GlutaMAX I, Earle's salts, 25 mM HEPES (Gibco #42360-032) containing 10% dialyzed FBS (Gibco #26400-044), 100 μM nonessential amino acids (Gibco #11140-050), 1 mM sodium pyruvate (Gibco #11360-070), 0.05% geneticin (Gibco #10131-027), 3 μg/mL blasticidin (Fluka brand from Sigma #15205), and 0.5 μg/mL puromycin (Sigma #P-8833).
Confluent cells were washed once with cold DPBS (Gibco #14190-136). Fresh DPBS was added and the cells were scraped and centrifuged at 500×g for 5 minutes at 4° C. The cell pellets were resuspended in TEE buffer (25 mM Tris, 5 mM EDTA, 5 mM EGTA) containing 1 protease inhibitor cocktail tablet (Roche #1 873 580) per 50 mL (called TEE+Complete) and can be flash frozen at this point.
In one embodiment, frozen cell pellets were used to prepare the membranes. In that embodiment, the frozen cell pellets were thawed on ice. In another embodiment, cell pellets may be used without flash freezing before moving on to the next step.
Cell pellets were resuspended in TEE buffer+Complete and homogenized in a glass dounce for 12 strokes. The cell suspension was centrifuged at 500×g for 5 minutes at 4° C. The supernatant was saved and centrifuged at 20,000×g for 20 minutes at 4° C. This supernatant was discarded and the cell pellet resuspended in TEE buffer+Complete and homogenized in a glass dounce for 12 strokes. This suspension was centrifuged at 20,000×g for 20 minutes at 4° C. and the supernatant discarded. The pellet was resuspended in assay buffer (50 mM Tris, 100 mM NaCl, 1 mM EDTA) containing one protease inhibitor cocktail tablet per 50 mL, and can be flash frozen as 1 mL aliquots at this point.
[…] A 1 mM DMSO intermediate stock was made in a dilution plate and from this the seven dilutions were made to 5× the final concentration in assay buffer containing 0.02% BSA.
To a polypropylene assay plate (Costar #3365) the following were added: a) 30 μL of assay buffer containing one protease inhibitor cocktail tablet per 50 mL; b) 30 μL of 1 nM ^33P 2MeS-ADP made in assay buffer containing 0.02% BSA and 12.5 mg/mL ascorbic acid; 30 μL of cold 1.5 μM 2MeS-ADP for the positive control wells, or assay buffer containing 0.02% BSA and 12.5 mg/mL ascorbic acid for the negative control wells, or 5× drug dilution; and 60 μL of 1 ug/well membranes.
The plates were incubated at room temperature for 1 hour. The reaction was stopped using a cell harvester to transfer the reaction mixture onto GF/B UniFilter plates (Perkin Elmer #6005177), and washed three times with wash buffer (50 mM Tris), filtering between each wash. The filter plates were dried for approximately 20 minutes in an oven at 50° C. Back seals were adhered to the filter plates and 25 uL of Microscint 20 scintillation fluid (Perkin Elmer #6013621) were added. The filter plates were sealed, shaken for 30 minutes, and counted on a Top Count. Data were analyzed using a four-parameter curve fit with a fixed minimum and maximum experimentally defined as the average positive and negative controls on each plate, and with a hill slope equal to one. […]

T1 sequence (Q9H244 whole entry): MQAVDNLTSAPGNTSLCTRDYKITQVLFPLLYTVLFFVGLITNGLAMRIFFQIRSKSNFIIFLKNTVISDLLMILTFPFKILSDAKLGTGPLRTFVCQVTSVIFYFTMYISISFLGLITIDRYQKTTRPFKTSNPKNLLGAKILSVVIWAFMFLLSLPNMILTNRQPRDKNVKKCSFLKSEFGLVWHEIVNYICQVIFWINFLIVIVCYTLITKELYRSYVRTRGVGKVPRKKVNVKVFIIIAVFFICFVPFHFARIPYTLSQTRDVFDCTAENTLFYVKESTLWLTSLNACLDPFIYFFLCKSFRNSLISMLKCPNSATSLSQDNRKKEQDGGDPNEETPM

| Structure (SMILES) | inhibition at 10 µM | IC50 | Ki | % Inhibition, [^33P]-2MeS-ADP Binding to Recombinant Human P2Y12 Membranes (Assay 3) | inhibition at 1 µM (highest concentration tested 1 μM) |
| --- | --- | --- | --- | --- | --- |
| CCc1cc2c(N3CCN(C(=O)c4ccc(-c5ccccc5)cc4)CC3)nc(NC(=O)COCc3ccccc3)nc2s1 [Example 27, 2-Benzyloxy-N-{4-[4-(biphenyl-4-carbonyl)piperazin-1-yl]-6-ethylthieno[2,3-d]pyrimidin-2-yl}acetamide] | 84% | 0.204 µM | 0.119 µM | – | – |
| CCc1cc2c(N3CCN(C(=O)CC(F)(F)F)CC3)nc(NC(=O)NCCC(=O)O)nc2s1 [Example 49, N-[({6-Ethyl-4-[4-(3,3,3-trifluoropropanoyl)piperazin-1-yl]thieno[2,3-d]pyrimidin-2-yl}amino)carbonyl]-beta-alanine] | 88.9% | 0.449 µM and 0.308 µM and 0.254 µM | 0.234 µM and 0.168 µM and 0.14 µM | 94.4% and 92% | – |
| CCc1cc2c(N3CCN(C(=O)c4ccc(-c5ccccc5)cc4)CC3)nc(NC(=O)c3ccncc3)nc2s1 [Example 34, {4-[4-(Biphenyl-4-carbonyl)piperazin-1-yl]-6-ethylthieno[2,3-d]pyrimidin-2-yl}isonicotinamide] | 74.8% | 0.582 µM | 0.328 µM | – | – |
| CCc1cc2c(N3CCN(C(=O)c4ccc(-c5ccccc5)cc4)CC3)nc(NC(=O)CCO)nc2s1 [Example 36, N-{4-[4-(Biphenyl-4-carbonyl)piperazin-1-yl]-6-ethylthieno[2,3-d]pyrimidin-2-yl}-3-hydroxypropionamide] | 94% | 0.067 µM | 0.037 µM | – | – |
| CCc1cc2c(N3CCN(C(=O)c4ccc(-c5ccccc5)cc4)CC3)nc(NC(=O)NCC(=O)O)nc2s1 [Example 18, N-[({4-[4-(1,1′-Biphenyl-4-ylcarbonyl)piperazin-1-yl]-6-ethylthieno[2,3-d]pyrimidin-2-yl}amino)carbonyl]glycine] | 95.4% | 0.0043 µM | 0.002 µM | – | – |
| CCc1cc2c(N3CCN(C(=O)c4ccc(-c5ccccc5)cc4)CC3)nc(NC(=O)NCCCO)nc2s1 [Example 20, N-{4-[4-(1,1′-Biphenyl-4-ylcarbonyl)piperazin-1-yl]-6-ethylthieno[2,3-d]pyrimidin-2-yl}-N′-(3-hydroxypropyl)urea] | 89% | 0.072 µM | 0.047 µM | – | – |
| CCc1cc2c(N3CCN(C(=O)c4ccc(-c5ccccc5)cc4)CC3)nc(NC(=O)[C@@H]3CCCN3)nc2s1 [Example 39, (S)-Pyrrolidine-2-carboxylic Acid{4-[4-(Biphenyl-4-carbonyl)piperazin-1-yl]-6-ethylthieno[2,3-d]pyrimidin-2-yl}amide] | 81% | 0.179 µM | 0.087 µM | – | – |
| CCc1cc2c(N3CCN(C(=O)c4ccc(-c5ccccc5)cc4)CC3)nc(NC(=O)[C@H]3CCCN3)nc2s1 [Example 40, (R)-Pyrrolidine-2-carboxylic acid{4-[4-(biphenyl-4-carbonyl)piperazin-1-yl]-6-ethylthieno[2,3-d]pyrimidin-2-yl}amide] | 75.6% | 0.403 µM | 0.227 µM | – | – |
| CCOC(=O)CCNC(=O)Nc1nc(N2CCN(C(=O)CC(F)(F)F)CC2)c2cc(CC)sc2n1 [Example 46, Ethyl N-[({6-ethyl-4-[4-(3,3,3-trifluoropropanoyl)piperazin-1-yl]thieno[2,3-d]pyrimidin-2-yl}amino)carbonyl]-beta-alaninate] | – | 6.88 µM and 4.16 µM | 3.82 µM and 2.3 µM | 46.8% and 71.7% | – |
| CCc1cc2c(N3CCN(C(=O)c4ccc(-c5ccccc5)cc4)CC3)nc(NC(=O)COC)nc2s1 [Example 23, N-{4-[4-(Biphenyl-4-carbonyl)piperazin-1-yl]-6-ethylthieno[2,3-d]pyrimidin-2-yl}-2-methoxyacetamide] | 93.2% | 0.0624 µM | 0.036 µM | – | – |
| CCc1cc2c(N3CCN(C(=O)c4ccc(-c5ccccc5)cc4)CC3)nc(NC(=O)c3cccnc3)nc2s1 [Example 29, N-{4-[4-(Biphenyl-4-carbonyl)piperazin-1-yl]-6-ethylthieno[2,3-d]pyrimidin-2-yl}nicotinamide] | 89% | 0.078 µM | 0.043 µM | – | – |
| CCc1cc2c(N3CCN(C(=O)c4ccc(-c5ccccc5)cc4)CC3)nc(NC(=O)[C@H](COC(C)(C)C)NC(=O)OCc3ccccc3)nc2s1 [Example 35, Benzyl (1-{4-[4-(biphenyl-4-carbonyl)piperazin-1-yl]-6-ethylthieno[2,3-d]pyrimidin-2-ylcarbamoyl)-2-tert-butoxyethyl)carbamate] | 53.9% | 2.7 µM | 1.31 µM | – | – |
| CCc1cc2c(N3CCN(C(=O)c4ccc(-c5ccccc5)cc4)CC3)nc(NC(=O)CN)nc2s1 [Example 41, 2-Amino-N-{4-[4-(biphenyl-4-carbonyl)piperazin-1-yl]-6-ethylthieno[2,3-d]pyrimidin-2-yl}acetamide] | 85% | 0.156 µM | 0.085 µM | – | – |
| CCOC(=O)CCNC(=O)Nc1nc(N2CCN(C(=O)c3ccc(-c4ccccc4)cc3)CC2)c2cc(CC)sc2n1 [Example 17, ethyl N-[({4-[4-(1,1′-biphenyl-4-ylcarbonyl)piperazin-1-yl]-6-ethylthieno[2,3-d]pyrimidin-2-yl}amino)carbonyl]-beta-alaninate] | 89.9% | 0.157 µM | 0.09 µM | – | – |
| CCc1cc2c(N3CCN(C(=O)c4ccc(-c5ccccc5)cc4)CC3)nc(NC(=O)C3OC(OC)[C@@H]4OC(C)(C)O[C@H]34)nc2s1 (stereo partly drawn) [Example 31, (7R,8S)-6-Methoxy-2,2-dimethyltetrahydrofuro[3,4-d][1,3]dioxole-4-carboxylic acid{4-[4-(biphenyl-4-carbonyl)piperazin-1-yl]-6-ethylthieno[2,3-d]pyrimidin-2-yl}amide] | 76.7% | 0.345 µM and 0.678 µM | 0.189 µM and 0.329 µM | 72.4% | – |
| CCOC(=O)CNC(=O)Nc1nc(N2CCN(C(=O)c3ccc(-c4ccccc4)cc3)CC2)c2cc(CC)sc2n1 [Example 15, Ethyl N-[({4-[4-(1,1′-biphenyl-4-ylcarbonyl)piperazin-1-yl]-6-ethylthieno[2,3-d]pyrimidin-2-yl}amino)carbonyl]glycinate] | 94.5% | 0.066 µM | 0.038 µM | – | – |
| CCc1cc2c(N3CCN(C(=O)c4ccc(-c5ccccc5)cc4)CC3)nc(NC(=O)c3ccccn3)nc2s1 [Example 33, {4-[4-(Biphenyl-4-carbonyl)piperazin-1-yl]-6-ethylthieno[2,3-d]pyrimidin-2-yl}picolinamide] | 87.9% | 0.0389 µM | 0.021 µM | – | – |
| CCc1cc2c(N3CCN(C(=O)c4ccc(-c5ccccc5)cc4)CC3)nc(NC(=O)NCCC(=O)O)nc2s1 [Example 19, N-[({4-[4-(1,1′-Biphenyl-4-ylcarbonyl)piperazin-1-yl]-6-ethylthieno[2,3-d]pyrimidin-2-yl}amino)carbonyl]-beta-alanine] | 88% | 0.006 µM | 0.003 µM | – | – |
| CCc1cc2c(N3CCN(C(=O)c4ccc(-c5ccccc5)cc4)CC3)nc(NC(=O)CCC(=O)O)nc2s1 [Example 38, N-{4-[4-(Biphenyl-4-carbonyl)piperazin-1-yl]-6-ethylthieno[2,3-d]pyrimidin-2-yl}succinamic acid] | – | 0.013 µM | 0.008 µM | – | 88% |
| CCc1cc2c(N3CCN(C(=O)c4ccc(-c5ccccc5)cc4)CC3)nc(NC(=O)C(C)C)nc2s1 [Example 24] | 90% | 0.163 µM | 0.089 µM | – | – |
